Source: EP4755886A1 (Chengdu Chipscreen Pharmaceutical Ltd., priority 2023, dated 2025)

Experiments:
MTAP^-/- HCT-116 cells = test: Cell proliferation (MTS), MTAP-/- HCT-116; assay type: cell-based, human; conditions: for Selectivity: HCT116 WT IC50 relative to HCT116 MTAP-/- IC50; for IC50: Homo sapiens, 240 h, MTAP-/- HCT-116, 10 days with compound, MTS reading, read-out: IC50 HCT116 MTAP-/-
Outline: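 MTAP-/- (CRISPR/Cas9 biallelic knockout) or wild-type HCT-116 cells seeded at 100 cells/well, treated next day with 8-point 3-fold dilutions (top 20 µM) for 10 days at 37 °C, 5% CO2. Viability read by MTS; IC50 from four-parameter logistic fit of inhibition rate vs log concentration.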

wild-type HCT-116 cells = test: Cell proliferation (MTS), wild-type HCT-116; assay type: cell-based; conditions: Homo sapiens, 240 h; wild-type HCT-116, 10 days with compound, MTS reading; read-out: IC50 HCT116 WT
Outline: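 Wild-type HCT-116 cells were seeded at 100 cells/well in McCoy's 5A/10% FBS. From day 1 they were treated with compound in 3-fold dilutions (initial 20 µM, 8 points) for 10 days at 37° C. Proliferation was read by MTS on day 11, and IC50 was obtained from a four-parameter logistic fit.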

IC50 (MTAP^-/- HCT-116 cells) [nM] | IC50 (wild-type HCT-116 cells) [nM] | SMILES | Selectivity (MTAP^-/- HCT-116 cells)
13.7 | 1730 | CN(C(=O)c1cc2c(cc1F)nc(N)c1cnn(C)c12)C1COc2cc(C#Cc3ccnn3C)ccc21 (stereo not drawn) [Compound 36, 4-amino-7-fluoro-N,1-dimethyl-N-(6-((1-methyl-1H-pyrazol-5-yl)ethynyl)-2,3-dihydrobenzofuran-3-yl)-1H-pyrazolo[4,3-c]quinoline-8-carboxamide] | 126
22 | 2040 | Cc1cn(C)nc1C#Cc1ccc2c(c1)OCC2N(C)C(=O)c1cc2c(cc1F)nc(N)c1cnn(C)c12 (stereo not drawn) [Compound 37, 4-amino-N-(6-((1,4-dimethyl-1H-pyrazol-3-yl)ethynyl)-2,3-dihydrobenzofuran-3-yl)-7-fluoro-N,1-dimethyl-1H-pyrazolo[4,3-c]quinoline-8-carboxamide] | 93
13.8 | 1780 | CN(C(=O)c1cc2c(cc1F)nc(N)c1cnn(C)c12)C1COc2cc(C#Cc3cnn(C(F)F)c3)ccc21 (stereo not drawn) [Compound 41, 4-amino-N-(6-((1-(difluoromethyl)-1H-pyrazol-4-yl)ethynyl)-2,3-dihydrobenzofuran-3-yl)-7-fluoro-N,1-dimethyl-1H-pyrazolo[4,3-c]quinoline-8-carboxamide] | 129
18.5 | 785 | CN(C(=O)c1cc2c(cc1F)nc(N)c1cnn(C)c12)C1COc2cc(C#Cc3cnccc3C(F)F)ccc21 (stereo not drawn) [Compound 42, 4-amino-N-(6-((4-(difluoromethyl)pyridin-3-yl)ethynyl)-2,3-dihydrobenzofuran-3-yl)-7-fluoro-N,1-dimethyl-1H-pyrazolo[4,3-c]quinoline-8-carboxamide] | 42
11 | 736 | Cc1ccncc1C#Cc1ccc2c(c1)OCC2N(C)C(=O)c1cc2c(cc1F)nc(N)c1cnn(C)c12 (stereo not drawn) [Compound 44, 4-amino-7-fluoro-N,1-dimethyl-N-(6-((4-methylpyridin-3-yl)ethynyl)-2,3-dihydrobenzofuran-3-yl)-1H-pyrazolo[4,3-c]quinoline-8-carboxamide] | 67
4 | 213 | Cc1ncccc1C#Cc1ccc2c(c1)OC[C@H]2N(C)C(=O)c1cc2c(cc1F)nc(N)c1cnn(C)c12 [Compound 45A, (S)-4-amino-7-fluoro-N,1-dimethyl-N-(6-((2-methylpyridin-3-yl)ethynyl)-2,3-dihydrobenzofuran-3-yl)-1H-pyrazolo[4,3-c]quinoline-8-carboxamide] | 53
3 | 467 | CN1CCn2c(C#Cc3ccc4c(c3)OCC4N(C)C(=O)c3cc4c(cc3F)nc(N)c3cnn(C)c34)cnc2C1 (stereo not drawn) [Compound 46, 4-amino-7-fluoro-N,1-dimethyl-N-(6-((7-methyl-5,6,7,8-tetrahydroimidazo[1,2-a]pyrazin-3-yl)ethynyl)-2,3-dihydrobenzofuran-3-yl)-1H-pyrazolo[4,3-c]quinoline-8-carboxamide] | 156
5.2 | 598 | Cc1cncc(C#Cc2ccc3c(c2)OC[C@H]3N(C)C(=O)c2cc3c(cc2F)nc(N)c2cnn(C)c23)c1 [Compound 47A, (S)-4-amino-7-fluoro-N,1-dimethyl-N-(6-((5-methylpyridin-3-yl)ethynyl)-2,3-dihydrobenzofuran-3-yl)-1H-pyrazolo[4,3-c]quinoline-8-carboxamide] | 115
2 | 141 | CN(C(=O)c1cc2c(cc1F)nc(N)c1cnn(C)c12)[C@@H]1COc2cc(C#Cc3cccnc3)ccc21 [Compound 48A, (S)-4-amino-7-fluoro-N,1-dimethyl-N-(6-(pyridin-3-ylethynyl)-2,3-dihydrobenzof uran-3-yl)-1H-pyrazolo[4,3-c]quinoline-8-carboxamide] | 71
1.8 | 378 | Cc1nn(C)cc1C#Cc1ccc2c(c1)OC[C@H]2N(C)C(=O)c1ccc2nc(N)c3cnn(C)c3c2c1 [Compound 49A, (S)-4-amino-N-(6-((1,3-dimethyl-1H-pyrazol-4-yl)ethynyl)-2,3-dihydrobenzofuran-3-yl)-N,1-dimethyl-1H-pyrazolo[4,3-c]quinoline-8-carboxamide] | 210
1 | 45 | CN(C(=O)c1cc2c(cc1Cl)nc(N)c1cnn(C)c12)[C@@H]1COc2cc(C#Cc3ccnn3C)ccc21 [Compound 53A, (S)-4-amino-7-chloro-N,1-dimethyl-N-(6-((1-methyl-1H-pyrazol-5-yl)ethynyl)-2,3-dihydrobenzofuran-3-yl)-1H-pyrazolo[4,3-c]quinoline-8-carboxamide] | 45
5 | 217 | Cc1ccc(C#Cc2ccc3c(c2)OC[C@H]3N(C)C(=O)c2cc3c(cc2Cl)nc(N)c2cnn(C)c23)cn1 [Compound 55A, (S)-4-amino-7-chloro-N,1-dimethyl-N-(6-((6-methylpyridin-3-yl)ethynyl)-2,3-dihydrobenzofuran-3-yl)-1H-pyrazolo[4,3-c]quinoline-8-carboxamide] | 43
3 | 160 | CN(C(=O)c1cc2c(cc1Cl)nc(N)c1cnn(C)c12)[C@@H]1COc2cc(C#Cc3cccnc3F)ccc21 [Compound 56A, (S)-4-amino-7-chloro-N-(6-((2-fluoropyridin-3-yl)ethynyl)-2,3-dihydrobenzofuran-3-yl)-N,1-dimethyl-1H-pyrazolo[4,3-c]quinoline-8-carboxamide] | 53
9.5 | 2220 | Cc1ccc(C#Cc2ccc3c(c2)OC[C@H]3N(C)C(=O)c2cc3c4c(c(N)nc3cc2Cl)COC4)cn1 [Compound 58A, (S)-4-amino-7-chloro-N-methyl-N-(6-((6-methylpyridin-3-yl)ethynyl)-2,3-dihydrobenzofuran-3-yl)-1,3-dihydrofuro[3,4-c]quinoline-8-carboxamide] | 234
4.6 | 305 | Cc1ccc(C#Cc2ccc3c(c2)OC[C@H]3N(C)C(=O)c2cc3c(cc2F)nc(N)c2cnn(C)c23)cn1 [Compound 59A, (S)-4-amino-7-fluoro-N,1-dimethyl-N-(6-((6-methylpyridin-3-yl)ethynyl)-2,3-dihydrobenzofuran-3-yl)-1H-pyrazolo[4,3-c]quinoline-8-carboxamide] | 66
8 | 486 | CN(C(=O)c1cc2c(cc1F)nc(N)c1cnn(C)c12)[C@@H]1COc2cc(C#Cc3ccc4cnn(C)c4c3)ccc21 [Compound 60A, (5)-4-amino-7-fluoro-N,1-dimethyl-N-(6-((1-methyl-1H-indazol-6-yl)ethynyl)-2,3-dihydrobenzofuran-3-yl)-1H-pyrazolo[4,3-c]quinoline-8-carboxamide] | 61
15.9 | 1260 | CN(C(=O)c1cc2c3c(c(N)nc2cc1Cl)COC3)[C@@H]1COc2cc(C#Cc3ccc4cnn(C)c4c3)ccc21 [Compound 62A, (S)-4-amino-7-chloro-N-methyl-N-(6-((1-methyl-1H-indazol-6-yl)ethynyl)-2,3-dihydrobenzofuran-3-yl)-1,3-dihydrofuro[3,4-c]quinoline-8-carboxamide] | 79
2 | 85 | Cc1ccncc1C#Cc1ccc2c(c1)OC[C@H]2N(C)C(=O)c1cc2c(cc1Cl)nc(N)c1cnn(C)c12 [Compound 63A, (S)-4-amino-7-chloro-N,1-dimethyl-N-(6-((4-methylpyridin-3-yl)ethynyl)-2,3-dihydrobenzofuran-3-yl)-1H-pyrazolo[4,3-c]quinoline-8-carboxamide] | 43
2 | 141 | Cc1cncc(C#Cc2ccc3c(c2)OC[C@H]3N(C)C(=O)c2cc3c(cc2Cl)nc(N)c2cnn(C)c23)c1 [Compound 65A, (S)-4-amino-7-chloro-N,1-dimethyl-N-(6-((5-methylpyridin-3-yl)ethynyl)-2,3-dihydrobenzofuran-3-yl)-1H-pyrazolo[4,3-c]quinoline-8-carboxamide] | 71
2 | 85 | CN(C(=O)c1cc2c(cc1Cl)nc(N)c1cnn(C)c12)[C@@H]1COc2cc(C#Cc3cnn(C(F)F)c3)ccc21 [Compound 67A, (S)-4-amino-7-chloro-N-(6-((1-(difluoromethyl)-1H-pyrazol-4-yl)ethynyl)-2,3-dihydrobenzofuran-3-yl)-N,1-dimethyl-1H-pyrazolo[4,3-c]quinoline-8-carboxamide] | 43
6.6 | 312 | CN(C(=O)c1cc2c3c(c(N)nc2cc1Cl)COC3)[C@@H]1COc2cc(C#Cc3cn(C)nc3Cl)ccc21 [Compound 68A, (S)-4-amino-7-chloro-N-(6-((3-chloro-1-methyl-1H-pyrazol-4-yl)ethynyl)-2,3-dihydrobenzofuran-3-yl)-N-methyl-1,3-dihydrofuro[3,4-c]quinoline-8-carboxamide] | 47
5 | 864 | CCn1cc(C#Cc2ccc3c(c2)OC[C@H]3N(C)C(=O)c2cc3c4c(c(N)nc3cc2Cl)COC4)cn1 [Compound 69A, (S)-4-amino-7-chloro-N-(6-((1-ethyl-1H-pyrazol-4-yl)ethynyl)-2,3-dihydrobenzof uran-3-yl)-N-methyl-1,3-dihydrofuro[3,4-c]quinoline-8-carboxamide] | 173
